In ChEMBL document CHEMBL3525943, “Regiospecific and stereospecific triangulation of the structures of metabolites formed by sequential metabolism at multiple prochiral centers” (Drug Metab Dispos, 2012):

Tests used:
[1] = Drug excretion in female Sprague-Dawley rat feces treated with [14C]-AMG 221 at 2 mg/kg, po measured over 24 hrs by LC-MS/HPLC radiometric analysis; type: ADME, organism-based; design: dose 2 mg/kg, route oral; conditions: in vivo
[2] = Drug excretion in female Sprague-Dawley rat urine treated with [14C]-AMG 221 at 2 mg/kg, po measured over 24 hrs by LC-MS/HPLC radiometric analysis; type: ADME, organism-based; design: dose 2 mg/kg, route oral; conditions: in vivo
[3] = Retention time of the compound in Sprague-Dawley rat urine treated with [14C]-AMG 221 at 2 mg/kg, po measured over 24 hrs by LC-MS/HPLC radiometric analysis; type: ADME, organism-based; design: dose 2 mg/kg, route oral; conditions: in vivo
[4] = Drug excretion in male Sprague-Dawley rat feces treated with [14C]-AMG 221 at 2 mg/kg, po measured over 24 hrs by LC-MS/HPLC radiometric analysis; type: ADME, organism-based; design: dose 2 mg/kg, route oral; conditions: in vivo
[5] = Drug excretion in male Sprague-Dawley rat urine treated with [14C]-AMG 221 at 2 mg/kg, po measured over 24 hrs by LC-MS/HPLC radiometric analysis; type: ADME, organism-based; design: dose 2 mg/kg, route oral; conditions: in vivo
Rattus norvegicus = assay: Total drug recovery in female Sprague-Dawley rat treated with [14C]-AMG 221 at 2 mg/kg, po measured over 48 hrs by liquid scintillation counting analysis; type: ADME, organism-based; design: dose 2 mg/kg, route oral; conditions: in vivo
[6] = Retention time of the compound in Beagle dog urine treated with [14C]-AMG 221 at 2 mg/kg, po measured over 24 hrs by LC-MS/HPLC radiometric analysis; type: ADME, organism-based, Canis lupus familiaris; design: dose 2 mg/kg, route oral; conditions: in vivo
Plasma [7] = assay: Retention time of the compound in Beagle dog plasma treated with [14C]-AMG 221 at 2 mg/kg, po measured at 0.5 hrs by LC-MS/HPLC radiometric analysis; type: ADME, organism-based, Canis lupus familiaris; design: dose 2 mg/kg, route oral; conditions: in vivo
[8] = Drug level in Sprague-Dawley rat urine treated with [14C]-(S)-2-((1R,2S,4R,5S)-5-hydroxybicyclo[2.2.1]heptan-2-ylamino)-5-isopropyl-5-methylthiazol-4(5H)-one at 5 mg/kg, po measured over 24 hrs by LC-MS/HPLC radiometric analysis; type: ADME, organism-based; design: dose 5 mg/kg, route oral; conditions: in vivo
[9] = Retention time of the compound in Sprague-Dawley rat urine treated with [14C]-AMG 221 at 2 mg/kg, po after 12 hrs by LC-MS/HPLC radiometric analysis; type: ADME, organism-based; design: dose 2 mg/kg, route oral; conditions: in vivo
[10] = Retention time of the compound in urine of bile duct cannulated Sprague-Dawley rat treated with [14C]-(S)-2-((1R,2S,4R,5S)-5-hydroxybicyclo[2.2.1]heptan-2-ylamino)-5-isopropyl-5-methylthiazol-4(5H)-one at 5 mg/kg, po measured over 48 hrs by LC-MS/HPLC radiometric analysis; type: ADME, organism-based; design: dose 5 mg/kg, route oral; conditions: in vivo
Liver microsome [11] = assay: Retention time of the compound in rat liver microsomes treated with (S)-2-((1S,2S,4R)-bicyclo[2.2.1]heptan-2-ylamino)-5-(2-hydroxypropan-2-yl)-5-methylthiazol-4(5H)-one at 20 uM preincubated for 5 mins followed by NADPH addition measured after 60 mins by LC-MS/MS analysis; type: ADME; conditions: 1 h
Liver microsome [12] = assay: Retention time of the compound in rat liver microsomes treated with [14C]-(S)-2-((1R,2S,4R,5S)-5-hydroxybicyclo[2.2.1]heptan-2-ylamino)-5-isopropyl-5-methylthiazol-4(5H)-one at 40 uM preincubated for 5 mins followed by NADPH addition measured after 60 mins by LC-MS/MS-radiometric analysis; type: ADME; conditions: 1 h
Liver microsome [13] = assay: Retention time of the compound in rat liver microsomes treated with (S)-2-((1S,2S,4R)-bicyclo[2.2.1]heptan-2-ylamino)-5-((S)-1-hydroxypropan-2-yl)-5-methylthiazol-4(5H)-one at 20 uM preincubated for 5 mins followed by NADPH addition measured after 60 mins by LC-MS/MS analysis; type: ADME; conditions: 1 h
[14] = Plasma protein binding in rat; type: ADME, cell-free; conditions: read-out: PPB (converted)
[15] = Plasma protein binding in human; type: ADME, cell-free; conditions: read-out: PPB (converted)
[16] = Oral bioavailability in rat; type: ADME, organism-based; conditions: in vivo
[17] = Clearance in iv dosed rat; type: ADME, organism-based; conditions: in vivo
[18] = Volume of distribution at steady state in rat; type: ADME, organism-based; conditions: in vivo, read-out: Vdss
Plasma [19] = assay: Retention time of the compound in Sprague-Dawley rat plasma treated with [14C]-AMG 221 at 2 mg/kg, po measured at 0.5 hrs by LC-MS/HPLC radiometric analysis; type: ADME, organism-based; design: dose 2 mg/kg, route oral; conditions: in vivo

CC(C)[C@]1(C)SC(N[C@H]2C[C@H]3C[C@@H]2[C@H](O)[C@@H]3O)=NC1=O
Drug excretion [1]: 24%
Drug excretion [2]: 24%
Retention_time [3]: 19.2 min
Drug excretion [4]: 8.3%
Drug excretion [5]: 8.3%
Drug recovery (Rattus norvegicus): 0.1%

C=C(C)[C@]1(C)SC(N[C@H]2C[C@H]3C[C@@H]2[C@H](O)C3)=NC1=O
Retention_time [6]: 29.9 min
Drug recovery (Rattus norvegicus): 0.1%

C=C(C)[C@]1(C)SC(N[C@H]2C[C@@H]3CC[C@H]2C3)=NC1=O
Retention_time (Plasma [7]): 40.7 min

C[C@H](CO)[C@]1(C)SC(N[C@H]2C[C@H]3C[C@@H]2C[C@@H]3O)=NC1=O
Drug excretion [1]: 24%
Drug metabolism [8]: metabolite_detected
Drug excretion [2]: 24%
Retention_time [3]: 7.2 min
Drug excretion [4]: 8.3%
Drug excretion [5]: 8.3%
Drug recovery (Rattus norvegicus): 1.2%

CC(CO[C@@H]1O[C@H](C(=O)O)[C@@H](O)[C@H](O)[C@H]1O)[C@]1(C)SC(N[C@H]2C[C@@H]3CC[C@H]2C3)=NC1=O (some centres undefined)
Retention_time [6]: 27.8 min
Drug recovery (Rattus norvegicus): 0.1%

C[C@@H](CO)[C@]1(C)SC(N[C@H]2C[C@@H]3CC[C@H]2C3)=NC1=O
Drug excretion [1]: 37%
Drug excretion [2]: 37%
Drug excretion [4]: 29%
Retention_time [9]: 37.5 min
Drug excretion [5]: 29%
Drug recovery (Rattus norvegicus): 0.8%

CC(C)(O)[C@]1(C)SC(N[C@H]2C[C@H]3C[C@@H]2C[C@H]3O)=NC1=O
Drug excretion [1]: 24%
Drug excretion [2]: 24%
Retention_time [10]: 12.8 min
Drug excretion [4]: 8.3%
Drug excretion [5]: 8.3%

C[C@H](CO)[C@]1(C)SC(N[C@H]2C[C@H]3C[C@@H]2[C@H](O)C3)=NC1=O
Drug excretion [1]: 24%
Drug excretion [2]: 24%
Retention_time [3]: 9.9 min
Drug excretion [4]: 8.3%
Drug excretion [5]: 8.3%
Drug recovery (Rattus norvegicus): 0.1%

CC(C)(O)[C@]1(C)SC(N[C@H]2C[C@H]3C[C@@H]2C[C@@H]3O)=NC1=O
Drug excretion [1]: 24%
Retention_time (Liver microsome [11]): 11.5 min
Drug excretion [2]: 24%
Retention_time (Liver microsome [12]): 11.5 min
Drug excretion [4]: 8.3%
Drug excretion [5]: 8.3%

C[C@@H](CO)[C@]1(C)SC(N[C@H]2C[C@H]3C[C@@H]2CC3=O)=NC1=O
Retention_time [3]: 14.1 min
Drug recovery (Rattus norvegicus): 2.1%

C[C@@H](CO)[C@]1(C)SC(N[C@H]2C[C@H]3C[C@@H]2C[C@@H]3O)=NC1=O
Drug excretion [1]: 24%
Retention_time (Liver microsome [13]): 11.5 min
Drug excretion [2]: 24%
Retention_time (Liver microsome [12]): 11.5 min
Drug excretion [4]: 8.3%
Drug excretion [5]: 8.3%
Drug recovery (Rattus norvegicus): 2.9%

C[C@H](CO)[C@]1(C)SC(N[C@H]2C[C@H]3C[C@@H]2CC3=O)=NC1=O
Retention_time [3]: 9.2 min
Drug recovery (Rattus norvegicus): 0.1%

CC(C)[C@]1(C)SC(N[C@H]2C[C@H]3C[C@@H]2C[C@H]3O)=NC1=O
Drug excretion [1]: 37%
Drug excretion [2]: 37%
Drug excretion [4]: 29%
Retention_time [9]: 30.9 min
Drug excretion [5]: 29%
Drug recovery (Rattus norvegicus): 4.7%

CC(C)[C@]1(C)SC(N[C@H]2C[C@H]3C[C@@H]2[C@H](O)C3)=NC1=O
Drug excretion [1]: 37%
Drug excretion [2]: 37%
Drug excretion [4]: 29%
Retention_time [9]: 33 min
Drug excretion [5]: 29%
Drug recovery (Rattus norvegicus): 3.2%

C=C(C)[C@]1(C)SC(N[C@H]2C[C@H]3C[C@@H]2C[C@@H]3O)=NC1=O
Retention_time [3]: 27.9 min
Drug recovery (Rattus norvegicus): 0.8%

C[C@@H](CO)[C@]1(C)SC(N[C@H]2C[C@H]3C[C@@H]2C[C@H]3O)=NC1=O
Drug excretion [1]: 24%
Drug excretion [2]: 24%
Retention_time [10]: 12.8 min
Drug excretion [4]: 8.3%
Drug excretion [5]: 8.3%
Drug recovery (Rattus norvegicus): 0.1%

CC(C)[C@]1(C)SC(N[C@H]2C[C@@H]3CC[C@H]2C3)=NC1=O
fraction unbound [14]: 0.15
fraction unbound [15]: 0.15
bioavailability [16]: 30%
clearance [17]: 50 mL/min/kg
Vd [18]: 1 L/kg

C[C@H](CO)[C@]1(C)SC(N[C@H]2C[C@H]3C[C@@H]2C[C@H]3O)=NC1=O
Drug excretion [1]: 24%
Drug excretion [2]: 24%
Retention_time [3]: 8.5 min
Drug excretion [4]: 8.3%
Drug excretion [5]: 8.3%
Drug recovery (Rattus norvegicus): 0.2%

CC(C)(O)[C@]1(C)SC(N[C@H]2C[C@@H]3CC[C@H]2C3)=NC1=O
Drug excretion [1]: 37%
Drug excretion [2]: 37%
Retention_time (Plasma [19]): 38.5 min
Drug excretion [4]: 29%
Drug excretion [5]: 29%
Drug recovery (Rattus norvegicus): 0.9%

C[C@@H](C(=O)O)[C@]1(C)SC(N[C@H]2C[C@@H]3CC[C@H]2C3)=NC1=O
Retention_time [6]: 35.7 min
Drug recovery (Rattus norvegicus): 0.5%

CC(C)(O)[C@]1(C)SC(N[C@H]2C[C@H]3C[C@@H]2CC3=O)=NC1=O
Retention_time [3]: 20.7 min

CC(C)[C@]1(C)SC(N[C@H]2C[C@H]3C[C@@H]2CC3=O)=NC1=O
Drug metabolism [8]: metabolite_detected
Retention_time [9]: 33.3 min
Drug recovery (Rattus norvegicus): 9.1%

C[C@H](C(=O)O)[C@]1(C)SC(N[C@H]2C[C@@H]3CC[C@H]2C3)=NC1=O
Retention_time [3]: 25.8 min

C[C@H](CO)[C@]1(C)SC(N[C@H]2C[C@@H]3CC[C@H]2C3)=NC1=O
Drug excretion [1]: 37%
Drug excretion [2]: 37%
Drug excretion [4]: 29%
Retention_time [9]: 34.6 min
Drug excretion [5]: 29%
Drug recovery (Rattus norvegicus): 2.6%

CC(O)(CO)[C@]1(C)SC(N[C@H]2C[C@@H]3CC[C@H]2C3)=NC1=O (some centres undefined)
Drug excretion [1]: 24%
Retention_time [6]: 31.5 min
Drug excretion [2]: 24%
Drug excretion [4]: 8.3%
Drug excretion [5]: 8.3%
Drug recovery (Rattus norvegicus): 0.1%

CC(C)[C@]1(C)SC(N[C@H]2C[C@H]3C[C@@H]2C[C@@H]3O)=NC1=O
Drug excretion [1]: 24%
Drug excretion [2]: 24%
Drug excretion [4]: 17%
Retention_time [9]: 30.3 min
Drug excretion [5]: 17%
Drug recovery (Rattus norvegicus): 24.2%
